Tests used:
Format in all cases: biochemical
[1] = molecular target: T1, BCRP (Homo sapiens, UniProt Q9UNQ0); assay: BCRP-mediated LY vesicular transport (Sf9 membrane vesicles); conditions: for inhibition at 10 min, 50 μM: human, read-out: inhibition of BCRP-driven vesicular uptake of LY
T1 construct: made in house; host or cells: Sf9 insect cells (baculovirus)
T1 sequence (Q9UNQ0 1-655): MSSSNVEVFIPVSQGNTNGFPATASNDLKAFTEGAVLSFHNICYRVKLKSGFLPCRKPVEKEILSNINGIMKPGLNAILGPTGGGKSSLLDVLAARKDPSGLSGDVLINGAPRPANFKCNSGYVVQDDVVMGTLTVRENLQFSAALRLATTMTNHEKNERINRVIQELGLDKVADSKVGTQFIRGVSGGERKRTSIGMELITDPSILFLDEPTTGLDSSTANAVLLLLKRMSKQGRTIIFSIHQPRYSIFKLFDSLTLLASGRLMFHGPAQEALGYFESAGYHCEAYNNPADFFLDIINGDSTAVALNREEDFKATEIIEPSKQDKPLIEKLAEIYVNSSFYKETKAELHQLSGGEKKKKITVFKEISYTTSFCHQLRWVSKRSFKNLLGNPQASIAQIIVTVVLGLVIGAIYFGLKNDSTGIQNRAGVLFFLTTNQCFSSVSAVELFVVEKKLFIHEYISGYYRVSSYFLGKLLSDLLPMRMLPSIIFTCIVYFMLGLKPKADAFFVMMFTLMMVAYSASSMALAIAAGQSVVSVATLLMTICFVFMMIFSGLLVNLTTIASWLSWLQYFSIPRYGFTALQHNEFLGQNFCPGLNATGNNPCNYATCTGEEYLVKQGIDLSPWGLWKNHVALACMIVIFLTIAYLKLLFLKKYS
Description: Experiments were performed in insect membrane vesicles, as described previously. Briefly, human MDR1, BCRP, and MRP2 were expressed in Sf9 insect cells by baculoviruses. On the third day of infection, cells were collected and membrane vesicles were obtained by mechanical disruption and differential centrifugation. To get full activity for BCRP, the cholesterol levels of the vesicles were adjusted to the level of mammalian membranes. Vesicles were stored at −80 °C, and the total protein content of the preparations was measured by the Lowry method (used as a reference for the quantity). Membrane vesicles (50 μg protein/sample) were incubated at 37 °C for 10 min (without or with 4 mM Mg-ATP) in 50 μL volume in the presence of transporter-specific fluorescent substrates: N-methylquinidine (NMQ; 5 μM) for MDR1, lucifer yellow (LY; 10 μM) for BCRP, and 5(6)-carboxy-2′,7′-dichlorofluorescein (CDCF; 5 μM) for MRP2. […] ATP-dependent (4 mM) uptake of fluorescent substrates was examined in the presence of 0–50 μM concentrations of mycotoxins (ZEN, Z14S, or Z14GA). […] After incubation, samples were rapidly filtered and washed on a filter plate (MSFBN6B10; Millipore, Burlington, MA). Accumulated substrates in vesicles were solved back from the filter with 100 μL of SDS (10%) and centrifuged into another plate. A 100 μL volume of fluorescence stabilizer was added to the samples (DMSO for LY, 0.1 M H2SO4 for NMQ, and 0.1 M NaOH for CDCF). Fluorescence of samples was measured by plate readers (Victor X3 and Enspire PerkinElmer; Waltham, MA) at appropriate wavelengths (filters in the Victor X3 reader were 405/535 nm for LY and 492/635 nm for CDCF; while in the Enspire reader, NMQ was measured at 360/430 nm excitation/emission wavelengths). ABC-related transport was calculated by subtracting passive uptake measured without Mg-ATP from values measured in the presence of Mg-ATP.

[2] = molecular target: T1, BCRP; assay: BCRP vanadate-sensitive ATPase activity assay; conditions: for effect on BCRP-dependent ATPase activity: up to 50 μM, Z14S effect seen even at 2 μM
Description: (§1) ATPase activity was determined in Sf9 membrane vesicles containing human MDR1 or human BCRP prepared as described. − Appropriate amounts of vesicles (10 μg/50 μL) were used in the assays. Membrane vesicles were incubated with Mg-ATP (3 mM) for 25 min at 37 °C. Effects of the test compounds were examined up to 50 μM concentrations. […] ABC transporter function was determined as vanadate-sensitive ATPase activity. Liberated inorganic phosphate (Pi) was measured by a colorimetric reaction, as it has been reported. After 25 min, absorbance values were determined at 660 nm by a VictorX plate reader (PerkinElmer).

[3] = molecular target: T2, MDR1 (Homo sapiens, UniProt P08183); assay: MDR1 vanadate-sensitive ATPase activity assay; conditions: up to 50 μM; Sf9 membrane vesicles
T2 construct: made in house; host or cells: Sf9 insect cells (baculovirus)
T2 sequence (P08183 whole entry): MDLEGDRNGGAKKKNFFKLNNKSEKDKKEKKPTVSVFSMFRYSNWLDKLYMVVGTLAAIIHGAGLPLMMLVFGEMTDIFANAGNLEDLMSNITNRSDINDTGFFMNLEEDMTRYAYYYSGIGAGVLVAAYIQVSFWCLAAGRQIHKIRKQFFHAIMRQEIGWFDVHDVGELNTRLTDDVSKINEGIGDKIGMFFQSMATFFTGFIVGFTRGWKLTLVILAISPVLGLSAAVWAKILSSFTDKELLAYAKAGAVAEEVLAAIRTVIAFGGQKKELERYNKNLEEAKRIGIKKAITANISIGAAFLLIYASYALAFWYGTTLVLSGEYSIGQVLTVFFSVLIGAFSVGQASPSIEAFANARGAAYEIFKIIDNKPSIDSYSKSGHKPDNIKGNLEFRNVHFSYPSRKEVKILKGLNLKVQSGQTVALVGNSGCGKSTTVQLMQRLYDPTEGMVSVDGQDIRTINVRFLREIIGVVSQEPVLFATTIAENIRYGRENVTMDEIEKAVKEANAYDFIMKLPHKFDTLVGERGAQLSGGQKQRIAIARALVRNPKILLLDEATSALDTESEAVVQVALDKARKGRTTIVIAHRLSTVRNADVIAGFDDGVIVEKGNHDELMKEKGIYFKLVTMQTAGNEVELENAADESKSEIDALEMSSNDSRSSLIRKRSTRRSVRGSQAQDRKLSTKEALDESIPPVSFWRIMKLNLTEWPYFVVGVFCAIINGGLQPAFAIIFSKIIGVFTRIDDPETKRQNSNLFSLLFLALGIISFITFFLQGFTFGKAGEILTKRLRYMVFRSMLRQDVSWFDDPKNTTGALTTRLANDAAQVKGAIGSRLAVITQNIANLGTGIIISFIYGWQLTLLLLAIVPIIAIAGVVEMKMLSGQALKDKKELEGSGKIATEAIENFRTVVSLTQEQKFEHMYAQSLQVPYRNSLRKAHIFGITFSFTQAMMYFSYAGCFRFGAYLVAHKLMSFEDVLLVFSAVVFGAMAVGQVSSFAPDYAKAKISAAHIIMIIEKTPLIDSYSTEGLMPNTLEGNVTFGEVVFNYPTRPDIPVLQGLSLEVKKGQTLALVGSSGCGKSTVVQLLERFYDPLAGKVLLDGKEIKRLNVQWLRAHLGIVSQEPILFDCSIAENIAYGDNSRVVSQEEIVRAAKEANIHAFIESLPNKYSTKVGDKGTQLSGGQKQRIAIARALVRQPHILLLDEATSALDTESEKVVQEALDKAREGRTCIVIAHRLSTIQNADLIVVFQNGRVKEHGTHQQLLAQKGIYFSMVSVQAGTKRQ
Description: as §1

SMILES	effect on BCRP-driven vesicular uptake of LY ([1]; 0–50 μM, LY 10 μM)	effect on BCRP-dependent ATPase activity [2]	effect on MDR1 ATPase activity [3]	IC50 [1] [µM]	inhibition at 10 min, 50 μM ([1]; LY 10 μM) [%]	effect on basal ATPase activity of BCRP ([2]; 50 μM)
C[C@H]1CCCC(=O)CCC/C=C/c2cc(O[C@@H]3O[C@H](C(=O)O)[C@@H](O)[C@H](O)[C@H]3O)cc(O)c2C(=O)O1 [Z14GA, Zearalenone-14-glucuronide]	weak inhibitory action	did not affect	did not modify	–	–	–
C[C@H]1CCCC(=O)CCC/C=C/c2cc(OS(=O)(=O)O)cc(O)c2C(=O)O1 [Z14S, zearalenone-14-sulfate]	–	moderate increase	did not modify	4.4	> 90	–
C[C@H]1CCCC(=O)CCC/C=C/c2cc(O)cc(O)c2C(=O)O1 [ZEN, Zearalenone]	–	no relevant impact	considerable elevation even at 5 μM concentration	2.6	> 90	slight inhibition
